# Molecular target: T1, BRD4 (BD1) (Homo sapiens, UniProt O60885)
# T1 construct: with relatively long constructs also being possible, preferably amino acids 44-168; made in house; host or cells: E. coli
# Experiment: Binding assay BRD4/acetylated peptide H4 (TR-FRET protein-protein interaction assay)
# From the text: Binding Assay BRD4/Acetylated Peptide H4 (“PRO”)
# To assess the BRD4 binding of the substances described in the present application, their ability to inhibit the interaction between BRD4 (BD1) and acetylated histone H4 in a dose-dependent manner was quantified (Filippakopoulos et al., Cell, 2012, 149: 214-231).
# For this purpose, use was made of a time-resolved fluorescence resonance energy transfer (TR-FRET) assay which measured binding between N-terminally His6-tagged BRD4 (BD1) (amino acids 67-152, with relatively long constructs also being possible, preferably amino acids 44-168) and a synthetic acetylated histone H4 (Ac—H4) peptide having the sequence GRGK(Ac)GGK(Ac)GLGK(Ac)GGAK(Ac)RHGSGSK-biotin. The recombinant BRD4 protein-produced according to Filippakopoulos et al., Cell, 2012, 149: 214-231—was expressed in E. coli and purified by (Ni-NTA) affinity and (Sephadex G-75) size exclusion chromatography. The Ac—H4 peptide is commercially available, for example from Biosyntan (Berlin, Germany). In a typical assay, 11 different concentrations of each substance (0.1 nM, 0.33 nM, 1.1 nM, 3.8 nM, 13 nM, 44 nM, 0.15 μM, 0.51 μM, 1.7 μM, 5.9 μM and 20 μM) were measured in duplicate on the same microtitre plate. To this end, 100-fold concentrated solutions in DMSO were prepared by serial dilution (1:3.4) of a 2 mM stock solution in a clear 384-well microtitre platte (Greiner Bio-One, Frickenhausen, Germany) 50 nl of these were transferred into a black test plate (Greiner Bio-One, Frickenhausen, Germany). The test was started by addition of 2 μl of a 2.5-fold concentrated BRD4 solution (final concentration usually 10 nM in the […] of the reaction volume) in aqueous assay buffer [50 mM HEPES pH 7.5. 50 mM sodium chloride (NaCl), 0.25 mM CHAPS and 0.05% serum albumin (BSA)] to the substances in the test plate. This was followed by a 10-minute incubation step at 22° C. to pre-equilibrate putative complexes between BRD4 and the substances.
# The mixture was then incubated in the dark for one hour at 22° C. and then for at least 3 hours and at most overnight at 4° C. Formation of BRD4/Ac—H4 complexes was determined by measuring the resonance energy transfer from the streptavidin-Eu cryptate to the anti-6His-XL665 antibody in the reaction. To this end, the fluorescence emission was measured at 620 nm and 665 nm after excitation at 330-350 nm in a TR-FRET measuring device, for example a Rubystar or Pherastar (both from BMG Lab Technologies, Offenburg, Germany) or a Viewlux (Perkin-Elmer). The ratio of the emission at 665 nm and at […] was used as an indicator for the amount of BRD4/Ac—H4 complexes formed.
# The data obtained (ratios) were normalized, with 0% inhibition corresponding to the mean of the measured values of a set of controls (usually 32 data points) comprising all reagents. Here, 50 nl of DMSO (100%) were used instead of test substances. An inhibition of 100% corresponded to the mean of the measured values of a set of controls (usually 32 data points) comprising all reagents except for BRD4. The IC50 was determined by regression analysis based on a 4-parameter equation (minimum, maximum, IC50, Hill; Y=Max+(Min−Max)/(1+(X/IC 50)^Hill)).
row,SMILES,IC50 [µM]
1,"CNC(=O)N1N=C(c2ccc(N3CCCS3(=O)=O)cc2)c2cc(OC)c(OC)cc2CC1C (racemic) [Example 244, (±)-1-[4-(1,1-Dioxido-1,2-thiazolidin-2-yl)phenyl]-7,8-dimethoxy-N,4-dimethyl-4,5-dihydro-3H-2,3-benzodiazepine-3-carboxamide]",0.03
2,"CCC1Cc2cc(OC)c(OC)cc2C(c2ccc(N3CCNCC3)cc2)=NN1C(=O)NC (racemic) [Example 202, (±)-4-ethyl-7,8-dimethoxy-N-methyl-1-[4-(piperazin-1-yl)phenyl]-4,5-dihydro-3H-2,3-benzodiazepine-3-carboxamide]",1.23
3,"CNC(=O)N1N=C(c2ccc(N3CCNC(=O)C3)cc2)c2cc(OC)c(OC)cc2C[C@@H]1C [Example 194, (4S)-7,8-dimethoxy-N,4-dimethyl-1-[4-(3-oxopiperazin-1-yl)phenyl]-4,5-dihydro-3H-2,3-benzodiazepine-3-carboxamide]",0.48
4,"COC(=O)N1N=C(c2ccc(N3CCN(C)CC3)cc2)c2cc(OC)c(OC)cc2CC1C (racemic) [Example 259, Methyl(±)-7,8-dimethoxy-4-methyl-1-[4-(4-methylpiperazin-1-yl)phenyl]-4,5-dihydro-3H-2,3-benzodiazepine-3-carboxylate]",0.52
5,"CCC1Cc2cc(OC)c(OC)cc2C(c2ccc(N3CCOCC3)cc2)=NN1C(=O)NC (racemic) [Example 208, (±)-4-ethyl-7,8-dimethoxy-N-methyl-1-[4-(morpholin-4-yl)phenyl]-4,5-dihydro-3H-2,3-benzodiazepine-3-carboxamide]",1.1
6,"CNC(=O)N1N=C(c2ccc(N3CCC(O)CC3)cc2)c2cc(OC)c(OC)cc2C[C@H]1C [Example 130.2, (4R)-1-[4-(4-Hydroxypiperidin-1-yl)phenyl]-7,8-dimethoxy-N,4-dimethyl-4,5-dihydro-3H-2,3-benzodiazepine-3-carboxamide]",9.87
7,COc1cc2c(cc1OC)C(c1ccc(N3CCN(C)CC3)cc1)=NN(C(=O)NC1CC1)C(C)C2 (racemic) [Example 257],2
8,"CNC(=O)N1N=C(c2ccc(-c3cccnc3Cl)cc2)c2cc(OC)c(OC)cc2C[C@@H]1C [Example 4.2, (S)-1-[4-(2-chloropyridin-3-yl)phenyl]-7,8-dimethoxy-N,4-dimethyl-4,5-dihydro-3H-2,3-benzodiazepine-3-carboxamide]",0.06
9,"CNC(=O)N1N=C(c2cc(N3CCN(C)CC3)c(Br)cc2Br)c2cc(OC)c(OC)cc2CC1C (racemic) [Example 252, (±)-1-[2,4-Dibromo-5-(4-methylpiperazin-1-yl)phenyl]-7,8-dimethoxy-N,4-dimethyl-4,5-dihydro-3H-2,3-benzodiazepine-3-carboxamide]",5.29
10,"CCC1Cc2cc(OC)c(OC)cc2C(c2ccc(N3CCN(C(C)=O)CC3)cc2)=NN1C(=O)NC (racemic) [Example 205, (±)-1-[4-(4-acetylpiperazin-1-yl)phenyl]-4-ethyl-7,8-dimethoxy-N-methyl-4,5-dihydro-3H-2,3-benzodiazepine-3-carboxamide]",1.08
11,"CNC(=O)N1N=C(c2ccc(-c3c(C)nn(C)c3C)cc2)c2cc(OC(F)(F)F)ccc2CC1C (racemic) [Example 249, (±)-N,4-dimethyl-8-(trifluoromethoxy)-1-[4-(1,3,5-trimethyl-1H-pyrazol-4-yl)phenyl]-4,5-dihydro-3H-2,3-benzodiazepine-3-carboxamide]",0.03
12,"CNC(=O)N1N=C(c2ccc(Cl)cc2)c2ccc(N3CCN(C)CC3)cc2CC1C (racemic) [Example 236, (±)-1-(4-chlorophenyl)-N,4-dimethyl-7-(4-methylpiperazin-1-yl)-4,5-dihydro-3H-2,3-benzodiazepine-3-carboxamide]",2.2
13,"CC[C@@H]1Cc2cc(OC)c(OC)cc2C(c2ccc(N3CCN(S(C)(=O)=O)CC3)cc2)=NN1C(=O)NC [Example 203.2, (4R)-4-ethyl-7,8-dimethoxy-N-methyl-1-{4-[4-(methylsulphonyl)piperazin-1-yl]phenyl}-4,5-dihydro-3H-2,3-benzodiazepine-3-carboxamide]",11.2
14,"CCC1Cc2cc(OC)c(OC)cc2C(c2ccc(N3CCC(O)CC3)cc2)=NN1C(=O)NC (racemic) [Example 207, (±)-4-ethyl-1-[4-(4-hydroxypiperidin-1-yl)phenyl]-7,8-dimethoxy-N-methyl-4,5-dihydro-3H-2,3-benzodiazepine-3-carboxamide]",1.22
15,"CCOC(=O)N1N=C(c2ccc(N3CCN(C)CC3)cc2)c2cc(OC)c(OC)cc2CC1C (racemic) [Example 260, Ethyl (±)-7,8-dimethoxy-4-methyl-1-[4-(4-methylpiperazin-1-yl)phenyl]-4,5-dihydro-3H-2,3-benzodiazepine-3-carboxylate]",6.49
16,"CCC1Cc2cc(OC)c(OC)cc2C(c2ccc(-c3c(C)noc3C)cc2)=NN1C(=O)NC (racemic) [Example 223, (±)-1-[4-(3,5-dimethyl-1,2-oxazol-4-yl)phenyl]-4-ethyl-7,8-dimethoxy-N-methyl-4,5-dihydro-3H-2,3-benzodiazepine-3-carboxamide]",0.32
17,"CNC(=O)N1N=C(c2ccc(N3CCC(CCO)CC3)cc2)c2cc(OC)c(OC)cc2CC1C (racemic) [Example 183, (±)-1-{4-[4-(2-hydroxyethyl)piperidin-1-yl]phenyl}-7,8-dimcthoxy-N,4-dimethyl-4,5-dihydro-3H-2,3-benzodiazepine-3-carboxamide]",0.04
18,"CNC(=O)N1N=C(c2ccc(N3C[C@@H](C)O[C@@H](C)C3)cc2)c2cc(OC)c(OC)cc2C[C@@H]1C [Example 195, (4S)-1-{4-[(2R,6S)-2,6-dimethylmorpholin-4-yl]phenyl}-7,8-dimethoxy-N,4-dimethyl-4,5-dihydro-3H-2,3-benzodiazepine-3-carboxamide]",0.69
19,"CNC(=O)N1N=C(c2ccc(Cl)cc2)c2ccc(N3CCCCC3=O)cc2CC1C (racemic) [Example 231, (±)-1-(4-chlorophenyl)-N,4-dimethyl-7-(2-oxopiperidin-1-yl)-4,5-dihydro-3H-2,3-benzodiazepine-3-carboxamide]",3.37
20,"CNC(=O)N1N=C(c2ccc(N3CC(C)(O)C3)cc2)c2cc(OC)c(OC)cc2C[C@H]1C [Example 185.1, (4R)-1-[4-(3-hydroxy-3-methylazetidin-1-yl)phenyl]-7,8-dimethoxy-N,4-dimethyl-4,5-dihydro-3H-2,3-benzodiazepine-3-carboxamide]",1.49
21,"CNC(=O)N1N=C(c2ccc(Cl)cc2)c2cc(OCCCN3CCN(C)CC3)ccc2C[C@H]1C [Example 164.1, (4R)-1-(4-chlorophenyl)-N,4-dimethyl-8-[3-(4-methylpiperazin-1-yl)propoxy]-4,5-dihydro-3H-2,3-benzodiazepine-3-carboxamide]",> 20
22,"CNC(=O)N1N=C(c2ccc(-c3cccnc3Cl)cc2)c2cc(OC)c(OC)cc2C[C@H]1C [Example 4.1, (R)-1-[4-(2-chloropyridin-3-yl)phenyl]-7,8-dimethoxy-N,4-dimethyl-4,5-dihydro-3H-2,3-benzodiazepine-3-carboxamide]",0.78
23,"CNC(=O)N1N=C(c2ccc(N3CCC(=O)CC3)cc2)c2cc(OC)c(OC)cc2CC1C (racemic) [Example 196, (±)-7,8-dimethoxy-N,4-dimethyl-1-[4-(4-oxopiperidin-1-yl)phenyl]-4,5-dihydro-3H-2,3-benzodiazepine-3-carboxamide]",0.09
24,"CNC(=O)N1N=C(c2ccc(-c3c(C)nn(C)c3C)cc2)c2cc(OC)c(OC)cc2CC1C(C)C (racemic) [Example 224, (±)-4-isopropyl-7,8-dimethoxy-N-methyl-1-[4-(1,3,5-trimethyl-1H-pyrazol-4-yl)phenyl]-4,5-dihydro-3H-2,3-benzodiazepine-3-carboxamide]",7.69
